Patent US11806393B2, “Flavivirus peptide sequences, epitopes, and methods and uses thereof” (priority 2017, dated 2023)

What was measured:
Format in all cases: cell-based, mouse
[1] = tested on: CD8+ T cells; test: IFNγ-ELISPOT of predicted H-2b-binding ZIKV peptides; details: CD8+ T cells of mice infected with MR766 or FSS13025, day 7; positive: SFC per 10^6 CD8+ T cells ≥20 and stimulation index ≥2
Procedure: CD8^+ T cells were isolated by magnetic bead positive selection (Miltenyi Biotec, Germany). A total of 2×10^5 CD8^+ T cells were stimulated with 1×10^5 LPS-blast cells as antigen presenting cells (APCs) and 10 μg of individual ZIKV-derived peptide in 96-well flat-bottom plates (IMMOBILON™-P; Millipore, MA) coated with anti-mouse IFNγ monoclonal antibody (mAb) (clone AN18; Mabtech, Sweden) in triplicate. IFNγ-ELISPOT was performed as previously detailed (Elong Ngono et al., 2016). Positive peptides were those with a number of spot-forming cells (SFC) per 10^6 CD8^+ T cells ≥20 and a stimulation index ≥2 based on the negative control (DMSO). […]
The following results are with reference to FIG. 3A and FIG. 3B, where five-week-old LysMCre^+IFNAR^fl/fl were infected retro-orbitally with 10^4 FFU of ZIKV MR766 or FSS13025. […] A total of 244 peptides from ZIKV strains predicted to bind H-2Kb and H-2db with high affinity were screened. Two independent experiments for each ZIKV strain (n=5 mice for each experiment) were performed in triplicate per peptide. The data are expressed as the mean of spot forming cells (SFC) per 10^6 CD8^+ T cells, and error bars are represented as SEM. One-way ANOVA was used to compare the mean of each peptide with the control (DMSO) ([…]). […] The dotted line corresponds to the average amount of IFNγ produced by MOCK mice when stimulated with positive ZIKV-derived peptides (0.19% of IFNγ+CD8^+ T cells).

[2] = tested on: CD8+ T cells; test: IFNγ ELISPOT, ZIKV-infected Ifnar-/- HLA-A*0101 transgenic mice; details: HLA-A*0101 mice; for SFC/10^6 CD8+ T cells, FSS13025: 7 days after ZIKV FSS13025; for SFC/10^6 CD8+ T cells, MR766: 7 days after ZIKV MR766; for immunodominance in IFNγ ELISPOT: immunodominant: >500 SFCs/10^6 CD8+ T cells, shared by both ZIKV strains
Procedure: Two ZIKV strains, MR766 (Uganda, 1947) and FSS13025 (Cambodia, 2010), were obtained from the World Reference Center for Emerging Viruses and Arboviruses (WRCEVA). The mouse-adapted DENV2 strain S221 is a triple-plaque purified clone derived from DENV2 D2S1038. Both ZIKV and DENV2 were amplified in C6/36 mosquito cells, and viral titers were measured using baby hamster kidney (BHK)-21 cell-based focus forming assay (FFA). For epitope screening, 5-week old mice (female or male) were infected retro-orbitally (R.O.) with either 1×102 FFU of ZIKV FSS13025 or ZIKV MR766, or 2×10^4 FFU of DENV2 S221 in 200 μl 10% FBS/PBS. Seven days after infection, CD8^+ T cells were isolated from splenocytes and used for ELISPOT assay, while the splenocytes were directly used for ICS assay. Additionally, 5-week old mice were inoculated I.P. with 2×10^3 FFU of DENV2 S221 for 4 weeks.
CD8^+ T cells were isolated from splenocytes using magnetic bead positive selection (Miltenyi Biotec, Germany) 7 days after virus infection. 2×10^5 CD8^+ T cells were stimulated with 1×10^5 LPS-blasts loaded with 10 μg of individual peptide in 96-well flat-bottom plates (IMMOBILON™-P; Millipore, Bedford, Mass.) that were coated with anti-IFNγ mAb (clone AN18; Mabtech, Stockholm, Sweden) in triplicate. Concanavalin A (ConA) was used as positive control. After 20 hours of incubation, biotinylated anti-mouse IFNγ mAb (R4-6A2; Mabtech), followed by ABC peroxidase (Vector Laboratories, Burlingame, Calif., USA) and then 3-amino-9-ethylcarbazole (Sigma-Aldrich, St. Louis, Mo., USA) were added into the wells. […] A peptide inducing a magnitude of >500 SFCs/10^6 CD8^+ T cells was considered as an immunodominant peptide.
The following results are with respect to FIG. 9, where IFNγ ELISPOT was performed using CD8+ T cells isolated from Ifnar^−/− HLA-B*0702 transgenic mice (a and b) and Ifnar^−/− HLA-A*0101 transgenic mice (d and e) 7 days after retro-orbital (R.O.) infection with 1×10^2 FFU of ZIKV strain FSS13025 or MR766. Two independent experiments performed in triplicate were averaged and the error bars represent the SEM. The data are expressed as the mean number of spot forming cells (SFC) per 10^6 CD8^+ T cells. The criteria for positivity were net SFC per 10^6 cells of >20, and a stimulation index of >2.0 when compared with the negative control. Dotted lines represent the cutoff value. * Indicates a positive response. All positive peptides were grouped according the corresponding ZIKV protein (c and f); white and black bars are the total IFNγ response of all identified positive peptides from an indicated protein; numbers in parentheses are the number of positive peptides in this protein. ConA denotes Concanavalin A.

[3] = tested on: CD44+ CD4+ T cells; test: ICS, ZIKV SD001-infected Ifnar1-/- HLA-DRB1*0101 mice; details: for cytokines produced by ZIKV-primed CD4+ T cells on peptide stimulation: ZIKV SD001, day 7; for identification as Th1 epitope (IFNγ, TNF, IL-2 ICS): ZIKV-primed CD4+ T cells
Procedure: Ifnar1^−/− HLA-DRB1*0101 mice were infected retro-orbitally with 1×10^2 FFU of ZIKV strain SD001 for 7 days. Splenocytes were stimulated in vitro with the indicated ZIKV-derived HLA-DRB1*0101-binding peptides for 6 h, and the frequency of CD44^+ CD4^+ T cells producing IFNγ, TNF, or IFNγ plus TNF (A), IL-2 (B), and IL-17 (C) were detected using the ICS assay. Data represent the mean±s.e.m. of four independent experiments (n=3-5 mice/experiment; total 16 mice). *P<0.05, **P<0.01, ***P<0.001, ****P<0.0001 by two-tailed Mann-Whitney test. Negative and positive refer to cells incubated alone or with PMA/ionomycin, respectively. […]
(§1) For the 30-peptide epitope screen, 5-week-old female or male mice were infected retro-orbitally (r.o.) with either 1×10^2 focus-forming units (FFU) of ZIKV SD001 or 2×10^3 FFU of DENV2 S221 in 200 μl of 10% fetal bovine serum in phosphate-buffered saline (FBS/PBS). Seven days after infection, spleens were removed and single-cell splenocyte suspensions were prepared. A total of 1×10^6 splenocytes was plated in each well of a 96-well U-bottom plate and stimulated with individual peptides (20 μg crude peptide per well) for 6 h. One hour into the incubation, brefeldin A (GolgiPlug, BD Biosciences) was added to the cells. Positive and negative controls were splenocytes stimulated with phorbol-12-myristate-13-acetate (PMA, 0.1 μg/ml) and ionomycin (1 μg/ml) or incubated alone, respectively.
(§2) After incubation of splenocytes with peptides or PMA/ionomycin, cells were harvested, washed, and incubated with Fc Block (CD16/CD32 mAb 2.4G2, BD Biosciences), followed by staining with fixable Live/Dead blue viability stain (Life technologies) and the following antibodies: PerCP-Cy5.5-conjugated anti-CD3 mAb (clone 145-2C11, Tonbo), APC-eFluor780-conjugated anti-CD4 mAb (clone GK1.5, Invitrogen), Brilliant Violet (BV) 785-conjugated anti-CD44 mAb (clone IMT, Biolegend), PE-conjugated anti-CD11a (clone M17/4, Biolegend), BV605-conjugated anti-CD49d (clone 9C10(MFR4.B, Biolegend), PE-conjugated anti-CD25 mAb (clone PC61, Biolegend), PE-conjugated or biotin-conjugated anti-CD185 mAb (CXCR5, clone SPRC15; Invitrogen), BV 605-conjugated anti-[…] mAb (PD1, clone 29F.1A12; Biolegend), and/or BV 421-conjugated streptavidin (#405225, Biolegend). Cells were then fixed and permeabilized using Cytofix/Cytoperm solution (BD Biosciences), followed by staining with FITC-conjugated anti-IFNγ mAb (clone XMG1.2, Tonbo), Alexa Fluor 700- or APC-conjugated anti-TNF mAb (clone MP6-XT22, eBioscience), PE-, BV 421-, or BV 711-conjugated anti-IL-2 mAb (clone JES6-5H4, Biolegend), APC-conjugated anti-IL-4 mAb (clone 11B11, Biolegend), PE-conjugated anti-IL-5 mAb (clone TRFK5, eBioscience), BV510-conjugated anti-IL-17A mAb (clone 17B7, eBioscience), and/or Alexa Fluor 700-conjugated anti-FoxP3 mAb (clone FJK-16S, eBioscience). Data were collected using an LSR Fortessa flow cytometer (BD Biosciences) and analyzed using FlowJo software X 10.0.7 (Tree Star).

[4] = tested on: CD44+ CD4+ T cells; test: ICS, DENV2 S221-infected Ifnar1-/- HLA-DRB1*0101 mice; details: for cytokines produced by DENV2-primed CD4+ T cells on peptide stimulation / cross-reactive response by DENV2-primed CD4+ T cells: DENV2 S221, day 7
Procedure: Ifnar1^−/− HLA-DRB1*0101 mice were infected intraperitoneally with 2×10^3 FFU of DENV2 strain […] for 7 days. Splenocytes were stimulated in vitro with the indicated ZIKV-derived HLA-DRB1*0101-binding peptides for 6 h. The frequency of CD44^+ CD4^+ T cells producing IFNγ, TNF, or IFNγ plus TNF (A) or IL-2 (B) were detected using the ICS assay. Data represent the mean±s.e.m. of three independent experiments (n=3-4 mice/experiment; total 10 mice). *P<0.05, **P<0.01, ***P<0.001, ****P<0.0001 by two-tailed Mann-Whitney test. Negative and positive refer to cells incubated alone or with PMA/ionomycin, respectively.
as §1, §2

[5] = 7 days after DENV2 S221, 6 h stimulation
[6] = 7 days after ZIKV SD001, 6 h stimulation

Substance: 28 (VSFIFRAN) [compound 28]
- Strains (ZIKV strain for which the peptide induced a positive T cell response, IFNγ-ELISPOT) [1]: MR766/FSS

Substance: 29 (VVIKNGSYV) [compound 29]
- Strains (ZIKV strain for which the peptide induced a positive T cell response, IFNγ-ELISPOT) [1]: MR766/FSS

Substance: DVEAWRDRY [FSS/MR-NS123-31]
- SFC/10^6 CD8+ T cells, FSS13025 [2]: 583 SFC/10^6 CD8+ T cells
- SFC/10^6 CD8+ T cells, MR766 [2]: 260 SFC/10^6 CD8+ T cells
- immunodominance in IFNγ ELISPOT [2]: immunodominant

Substance: ELDPPFGDSY [FSS/MR-E377-386]
- SFC/10^6 CD8+ T cells, FSS13025 [2]: 286 SFC/10^6 CD8+ T cells

Substance: ETDENRAKV [FSS/MR-E159-167]
- SFC/10^6 CD8+ T cells, FSS13025 [2]: 512 SFC/10^6 CD8+ T cells
- SFC/10^6 CD8+ T cells, MR766 [2]: 516 SFC/10^6 CD8+ T cells
- immunodominance in IFNγ ELISPOT [2]: immunodominant

Substance: FSDLYYLTM [FSS/MR-E198-206]
- SFC/10^6 CD8+ T cells, FSS13025 [2]: 398 SFC/10^6 CD8+ T cells
- SFC/10^6 CD8+ T cells, MR766 [2]: 388 SFC/10^6 CD8+ T cells

Substance: FTDPSSIAA [FSS/MR-NS3272-280]
- SFC/10^6 CD8+ T cells, MR766 [2]: 286 SFC/10^6 CD8+ T cells

Substance: GLDFSDLYY [FSS/MR-E195-203]
- SFC/10^6 CD8+ T cells, FSS13025 [2]: 993 SFC/10^6 CD8+ T cells
- SFC/10^6 CD8+ T cells, MR766 [2]: 647 SFC/10^6 CD8+ T cells
- immunodominance in IFNγ ELISPOT [2]: immunodominant

Substance: HMCDATMSY [FSS/MR-prM40-48]
- SFC/10^6 CD8+ T cells, FSS13025 [2]: 288 SFC/10^6 CD8+ T cells

Substance: LPFVMALGLTAVRLV [NS2A134-198]
- cytokines produced by ZIKV-primed CD4+ T cells on peptide stimulation [3]: did not elicit a response by ZIKV-primed cells
- % CD4+ CD44+ T cells (DENV) TNFα+ [4, 5]: 0.397%
- cytokines produced by DENV2-primed CD4+ T cells on peptide stimulation [4]: induce TNF production

Substance: MSALEFYSY [FSS/MR-NS4B270-278]
- SFC/10^6 CD8+ T cells, FSS13025 [2]: 378 SFC/10^6 CD8+ T cells

Substance: MTERFQEAI [FSS/MR-NS4A14-22]
- SFC/10^6 CD8+ T cells, MR766 [2]: 266 SFC/10^6 CD8+ T cells

Substance: NLEYRIMLSVHGSQH [E134-148]
- % CD4+ CD44+ T cells (ZIKV) IL-2+ [3, 6]: 0.19%
- cytokines produced by ZIKV-primed CD4+ T cells on peptide stimulation [3]: stimulated only IL-2 production
- identification as Th1 epitope (IFNγ, TNF, IL-2 ICS) [3]: Th1 epitopes
- % CD4+ CD44+ T cells (DENV) IL-2+ [4, 5]: 0.459%
- cross-reactive response by DENV2-primed CD4+ T cells [4]: elicited cross-reactive responses
- cytokines produced by DENV2-primed CD4+ T cells on peptide stimulation [4]: induced only IL-2-producing cells

Substance: VTRRGNAYY [FSS-C125-prM8]
- SFC/10^6 CD8+ T cells, MR766 [2]: 266 SFC/10^6 CD8+ T cells

Substance: WAIYAALTTFITPAV [NS4B40-54]
- % CD4+ CD44+ T cells (ZIKV) INFγ+ TNFα+ [3, 6]: 0.049%
- cytokines produced by ZIKV-primed CD4+ T cells on peptide stimulation [3]: stimulated IFNγ plus TNF production
- identification as Th1 epitope (IFNγ, TNF, IL-2 ICS) [3]: Th1 epitopes
- % CD4+ CD44+ T cells (DENV) TNFα+ [4, 5]: 0.367%
- cross-reactive response by DENV2-primed CD4+ T cells [4]: elicited cross-reactive responses
- cytokines produced by DENV2-primed CD4+ T cells on peptide stimulation [4]: induced only TNF-producing cells

Substance: YAQMWQLLY [FSS/MR-NS5509-517]
- SFC/10^6 CD8+ T cells, FSS13025 [2]: 313 SFC/10^6 CD8+ T cells
- SFC/10^6 CD8+ T cells, MR766 [2]: 225 SFC/10^6 CD8+ T cells

Substance: YLAGASLIY [FSS/MR-NS4B231-239]
- SFC/10^6 CD8+ T cells, FSS13025 [2]: 1646 SFC/10^6 CD8+ T cells
- SFC/10^6 CD8+ T cells, MR766 [2]: 1574 SFC/10^6 CD8+ T cells
- immunodominance in IFNγ ELISPOT [2]: most immunodominant epitope

Substance: YLDKQSDTQY [FSS/MR-E81-90]
- SFC/10^6 CD8+ T cells, FSS13025 [2]: 495 SFC/10^6 CD8+ T cells
- SFC/10^6 CD8+ T cells, MR766 [2]: 258 SFC/10^6 CD8+ T cells
